What was measured:
[1] = system: OVCAR-4; assay: NCI-60 one-dose screen, OVCAR-4; assay type: cell-based; conditions: Homo sapiens; OVCAR-4, ovarian cancer; single dose 10 μM; read-out: Growth inhibition %
Experimental: (§1) Anti-proliferative effects of the counterparts 4a–g and 5a–g were screened against 60 human cancer cell lines, following the Developmental Therapeutics Program protocol, National Cancer Institute[35].
(§2) The anti-tumour activity of the fourteen synthesised congeners was investigated at the NCI against a panel of 60 cancer cell lines (NCI-60 Cell One-Dose Screen). The tested dibenzo[b,f]azepine derivatives were screened at a single dose level (10 μM), Table 1.

[2] = biological target: topoisomerase II; assay: Topoisomerase II inhibitory assay; assay type: biochemical; conditions: for IC50: in vitro, doxorubicin co-assayed as reference
Experimental: Therefore, following the procedure reported by Patra et al., the topoisomerase II activity was evaluated.

[3] = system: NCI-H226; assay: NCI-60 one-dose screen, NCI-H226; assay type: cell-based; conditions: Homo sapiens; NCI-H226, non-small cell lung cancer; single dose 10 μM; read-out: Growth inhibition %
Experimental: as §1, §2

[4] = system: SF-268; assay: NCI-60 one-dose screen, SF-268; assay type: cell-based; conditions: Homo sapiens; SF-268, CNS cancer; single dose 10 μM; read-out: Growth inhibition %
Experimental: as §1, §2

[5] = system: HCC-2998; assay: NCI-60 one-dose screen, HCC-2998; assay type: cell-based; conditions: Homo sapiens; HCC-2998, colon cancer; single dose 10 μM; read-out: Growth inhibition %
Experimental: as §1, §2

[6] = system: NCI/ADR-RES; assay: NCI-60 one-dose screen, NCI/ADR-RES; assay type: cell-based; conditions: Homo sapiens, ovarian cancer, single dose 10 μM, read-out: Growth inhibition %
Experimental: as §1, §2

[7] = system: HCT-116; assay: NCI-60 one-dose screen, HCT-116; assay type: cell-based; conditions: Homo sapiens; HCT-116, colon cancer; single dose 10 μM; read-out: Growth inhibition %
Experimental: as §1, §2

[8] = system: HT29; assay: NCI-60 one-dose screen, HT29; assay type: cell-based; conditions: Homo sapiens, HT-29; HT29, colon cancer; single dose 10 μM; read-out: Growth inhibition %
Experimental: as §1, §2

[9] = system: MALME-3M; assay: NCI-60 one-dose screen, MALME-3M; assay type: cell-based; conditions: Homo sapiens, melanoma, single dose 10 μM, read-out: Growth inhibition %
Experimental: as §1, §2

[10] = system: DU-145; assay: NCI-60 one-dose screen, DU-145; assay type: cell-based; conditions: Homo sapiens; DU-145, prostate cancer; single dose 10 μM; read-out: Growth inhibition %
Experimental: as §1, §2

[11] = system: A549-ATCC; assay: NCI-60 one-dose screen, A549-ATCC; assay type: cell-based; conditions: Homo sapiens, non-small cell lung cancer, single dose 10 μM, read-out: Growth inhibition %
Experimental: as §1, §2

[12] = system: SK-MEL-2; assay: NCI-60 one-dose screen, SK-MEL-2; assay type: cell-based; conditions: Homo sapiens; SK-MEL-2, melanoma; single dose 10 μM; read-out: Growth inhibition %
Experimental: as §1, §2

[13] = system: UO-31; assay: NCI-60 one-dose screen, UO-31; assay type: cell-based; conditions: Homo sapiens; UO-31, renal cancer; single dose 10 μM; read-out: Growth inhibition %
Experimental: as §1, §2

[14] = system: IGROV1; assay: NCI-60 one-dose screen, IGROV1; assay type: cell-based; conditions: Homo sapiens, IGROV-1; IGROV1, ovarian cancer; single dose 10 μM; read-out: Growth inhibition %
Experimental: as §1, §2

[15] = system: RPMI-8226; assay: NCI-60 one-dose screen, RPMI-8226; assay type: cell-based; conditions: Homo sapiens; RPMI-8226, leukaemia; single dose 10 μM; read-out: Growth inhibition %
Experimental: as §1, §2

[16] = system: SK-MEL-28; assay: NCI-60 one-dose screen, SK-MEL-28; assay type: cell-based; conditions: Homo sapiens; SK-MEL-28, melanoma; single dose 10 μM; read-out: Growth inhibition %
Experimental: as §1, §2

[17] = system: SR; assay: NCI-60 one-dose screen, SR; assay type: cell-based; conditions: Homo sapiens, leukaemia, single dose 10 μM, read-out: Growth inhibition %
Experimental: as §1, §2

[18] = system: SW-620; assay: NCI-60 one-dose screen, SW-620; assay type: cell-based; conditions: Homo sapiens; SW-620, colon cancer; single dose 10 μM; read-out: Growth inhibition %
Experimental: as §1, §2

[19] = system: SNB-19; assay: NCI-60 one-dose screen, SNB-19; assay type: cell-based; conditions: Homo sapiens; SNB-19, CNS cancer; single dose 10 μM; read-out: Growth inhibition %
Experimental: as §1, §2

[20] = system: MDA-MB-435; assay: NCI-60 one-dose screen, MDA-MB-435; assay type: cell-based; conditions: Homo sapiens; MDA-MB-435, melanoma; single dose 10 μM; read-out: Growth inhibition %
Experimental: as §1, §2

[21] = system: CAKI-1; assay: NCI-60 one-dose screen, CAKI-1; assay type: cell-based; conditions: Homo sapiens; CAKI-1, renal cancer; single dose 10 μM; read-out: Growth inhibition %
Experimental: as §1, §2

[22] = system: TK-10; assay: NCI-60 one-dose screen, TK-10; assay type: cell-based; conditions: Homo sapiens; TK-10, renal cancer; single dose 10 μM; read-out: Growth inhibition %
Experimental: as §1, §2

[23] = system: SK-OV-3; assay: NCI-60 one-dose screen, SK-OV-3; assay type: cell-based; conditions: Homo sapiens; SK-OV-3, ovarian cancer; single dose 10 μM; read-out: Growth inhibition %
Experimental: as §1, §2

[24] = system: KM12; assay: NCI-60 one-dose screen, KM12; assay type: cell-based; conditions: Homo sapiens; KM12, colon cancer; single dose 10 μM; read-out: Growth inhibition %
Experimental: as §1, §2

[25] = system: OVCAR-3; assay: NCI-60 one-dose screen, OVCAR-3; assay type: cell-based; conditions: Homo sapiens; OVCAR-3, ovarian cancer; single dose 10 μM; read-out: Growth inhibition %
Experimental: as §1, §2

[26] = system: leukaemia SR cells; assay: Anti-proliferative effect against SR cell line (MTT assay); assay type: cell-based
Experimental: The anti-proliferative effect of the 5e counterpart against the SR cell line was estimated using the MTT assay protocol.
Depending on the previous results, the cytotoxic activity of the designed candidate 5e was then evaluated against leukaemia SR cells. Doxorubicin was also evaluated as a reference drug.

SMILES | inhibition at 10 µM [1] [%] | IC50 [2] [µM] | inhibition at 10 µM [3] [%] | inhibition at 10 µM [4] [%] | inhibition at 10 µM [5] [%] | inhibition at 10 µM [6] [%] | inhibition at 10 µM [7] [%] | inhibition at 10 µM [8] [%] | inhibition at 10 µM [9] [%] | inhibition at 10 µM [10] [%] | inhibition at 10 µM [11] [%] | inhibition at 10 µM [12] [%] | inhibition at 10 µM [13] [%] | inhibition at 10 µM [14] [%] | inhibition at 10 µM [15] [%] | inhibition at 10 µM [16] [%] | inhibition at 10 µM [17] [%] | inhibition at 10 µM [18] [%] | inhibition at 10 µM [19] [%] | inhibition at 10 µM [20] [%] | other results
Brc1ccc(-c2nnc(N3c4ccccc4C=Cc4ccccc43)o2)cc1 [Compound 5b, 2-(4-Bromophenyl)-5-(5H-dibenzo[b,f]azepin-5-yl)-1,3,4-oxadiazole] | 19.6 | 10.2 | 28.3 | 24.7 | < 10 | 23.4 | 52.2 | 18.4 | < 10 | < 10 | 29.8 | < 10 | 33.5 | 21.6 | 17.5 | 14.1 | 73 | < 10 | 15.6 | < 10 | inhibition at 10 µM [21]: 31.9%; inhibition at 10 µM [22]: < 10%; inhibition at 10 µM [23]: < 10%; inhibition at 10 µM [24]: 21.4%; inhibition at 10 µM [25]: < 10%
Cc1ccc(-c2nnc(N3c4ccccc4C=Cc4ccccc43)o2)cc1 [Compound 5d, 2-(5 h-Dibenzo[b,f]azepin-5-yl)-5-(p-tolyl)-1,3,4-oxadiazole] | < 10 | 16.8 | 21.6 | 10.1 | < 10 | < 10 | 45.8 | < 10 | < 10 | < 10 | 12.4 | < 10 | < 10 | < 10 | 52 | < 10 | 60.6 | < 10 | < 10 | < 10 | inhibition at 10 µM [21]: 16.2%; inhibition at 10 µM [22]: < 10%; inhibition at 10 µM [23]: < 10%; inhibition at 10 µM [24]: 13.1%; inhibition at 10 µM [25]: < 10%
O=[N+]([O-])c1ccc(-c2nnc(N3c4ccccc4C=Cc4ccccc43)o2)cc1 [Compound 5e, 2-(5 h-Dibenzo[b,f]azepin-5-yl)-5–(4-nitrophenyl)-1,3,4-oxadiazole] | 21.8 | 6.36 | 13.7 | 16.1 | < 10 | < 10 | < 10 | < 10 | < 10 | < 10 | 16.5 | < 10 | 30.7 | < 10 | < 10 | < 10 | 30.1 | < 10 | < 10 | < 10 | Percentage of topoisomerase II inhibition ([2]; at the concentration of 100 µM (Figure 3A)): 89%; IC50 ([26]; Homo sapiens, leukaemia SR cells, unit as in head of Table 3, read-out: Cytotoxicity IC50, SR): 13.1 ± 0.62 µM; SI (selectivity index) ([26]; normal cell line PSC-800-011 versus SR): 3.36; inhibition at 10 µM [21]: 29.7%; inhibition at 10 µM [22]: < 10%; inhibition at 10 µM [23]: < 10%; inhibition at 10 µM [24]: < 10%; inhibition at 10 µM [25]: < 10%
